This experiment addresses T1, Recombinant human BACE1 (Homo sapiens, UniProt P56817).
T1 construct: purchased R&D Systems
Nature of the experiment: Assay of BACE1 inhibitory activity. It counts as biochemical. The following applies: Recombinant human BACE1, 30° C., 3 hours, pH 5.0; read-out: IC50 (50% inhibitory concentration against the enzymatic activity). On the procedure:
48.5 μL of substrate peptide solution (Biotin-XSEVNLDAEFRHDSGC-Eu: X=ε-amino-n-capronic acid, Eu=Europium cryptate) was added to each well of 96-hole half-area plate (a black plate: Costar), and after addition of 0.5 μl of the compound of the present invention (N,N′-dimethylformamide solution) and 1 μl of Recombinant human BACE1(R&D Systems), the reaction mixture was incubated at 30° C. for 3 hours. The substrate peptide was synthesized by reacting Cryptate TBPCOOH mono SMP (CIS bio international) with Biotin-XSEVNLDAEFRHDSGC (Peptide Institute, Inc.). The final concentrations of the substrate peptide and Recombinant human BACE1 were adjusted to 18 nmol/L and 7.4 nmol/L, respectively, and the reaction was performed in sodium acetate buffer (50 mmol/L sodium acetate, pH 5.0, 0.008% Triton X-100). After the incubation for reaction, 50 μl of 8.0 μg/ml Streptavidin-XL665 (CIS bio international) dissolved in phosphate buffer (150 mmol/L K2HPO4—KH2PO4, pH 7.0, 0.008% Triton X-100, 0.8 mol/L KF) was added to each well and left stand at 30° C. for 1 hour. After then, fluorescence intensity was measured (excitation wavelength: 320 nm, measuring wavelength: 620 nm and 665 nm) using Wallac 1420 multilabel counter (Perkin Elmer life sciences). Enzymatic activity was determined from counting ratio of each wavelength (10,000×Count 665/Count 620) and 50% inhibitory concentration against the enzymatic activity (IC50) was calculated.

T1 sequence (P56817 46-501): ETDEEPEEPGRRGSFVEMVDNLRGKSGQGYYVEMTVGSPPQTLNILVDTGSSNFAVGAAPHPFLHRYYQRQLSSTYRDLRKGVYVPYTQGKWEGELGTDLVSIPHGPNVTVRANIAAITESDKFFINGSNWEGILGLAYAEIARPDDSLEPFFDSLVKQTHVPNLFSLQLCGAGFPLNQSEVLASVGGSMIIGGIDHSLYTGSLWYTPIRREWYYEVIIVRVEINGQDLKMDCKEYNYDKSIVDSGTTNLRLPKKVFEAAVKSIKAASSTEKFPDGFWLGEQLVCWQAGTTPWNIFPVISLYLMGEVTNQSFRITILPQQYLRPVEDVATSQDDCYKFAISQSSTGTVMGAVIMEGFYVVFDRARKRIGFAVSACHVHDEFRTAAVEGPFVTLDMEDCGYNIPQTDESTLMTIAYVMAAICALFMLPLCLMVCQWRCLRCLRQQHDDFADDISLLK

Consider `COc1cnc(C(=O)Nc2ccc(F)c(C3(C)Cc4ccncc4C(N)=N3)c2)cn1` (centres unmarked) [Compound I-24], for which the IC50 was at most 1000 nM.

Turning to `CC1(c2cc(NC(=O)c3ccc(Cl)cn3)ccc2F)Cc2c(F)cncc2C(N)=N1` (centres unmarked) [Compound I-17], the IC50 is at most 1000 nM.

With `CC1(c2cc(NC(=O)c3ccc(C#N)cn3)ccc2F)Cc2cncc(F)c2C(N)=N1` (centres unmarked) [Compound I-6], the IC50 is at most 1000 nM.

Consider `CC1(c2cc(NC(=O)c3ccc(Cl)cn3)ccc2F)Cc2ccncc2C(N)=N1` (centres unmarked) [Compound I-3], for which the IC50 is at most 1000 nM.

Consider `CC1(c2cc(NC(=O)c3ncc(F)cc3F)ccc2F)Cc2cnccc2C(N)=N1` (centres unmarked) [Compound I-12], for which the IC50 was at most 1000 nM.

`CC1(c2cc(NC(=O)c3ccc(C(F)(F)F)cn3)ccc2F)Cc2ccncc2C(N)=N1` (centres unmarked) [Compound I-23]: the IC50 is at most 1000 nM.

For the molecule `CCC#CC(=O)Nc1ccc(F)c(C2(C)Cc3cnccc3C(N)=N2)c1` (centres unmarked) [Compound I-33], the IC50 is at most 1000 nM.

Regarding `Cc1cnc(C(=O)Nc2ccc(F)c(C3(C)Cc4cnccc4C(N)=N3)c2)cn1` (centres unmarked) [Compound I-15], the IC50 is at most 1000 nM.

For `COc1cnc(C(=O)Nc2ccc(F)c(C3(C)Cc4c(F)cncc4C(N)=N3)c2)cn1` (centres unmarked) [Compound I-20], the IC50 was at most 1000 nM.

Take `CC#CCOc1cnc(C(=O)Nc2ccc(F)c(C3(C)Cc4cnccc4C(N)=N3)c2)cn1` (centres unmarked) [Compound I-16]: the IC50 was at most 1000 nM.

Regarding `CC1(c2cc(NC(=O)c3ccc(C(F)(F)F)cn3)ccc2F)Cc2c(F)cncc2C(N)=N1` (centres unmarked) [Compound I-19], the IC50 was at most 1000 nM.

For the molecule `CC1(c2cc(NC(=O)c3ccc(C#N)cn3)ccc2F)Cc2c(ccnc2F)C(N)=N1` (centres unmarked) [Compound I-10], the IC50 is at most 1000 nM.

For the molecule `CC1(c2cc(NC(=O)c3ccc(C#N)cn3)ccc2F)Cc2cccnc2C(N)=N1` (centres unmarked) [Compound I-4], the IC50 is at most 1000 nM.

For the molecule `CC1(c2cc(NC(=O)c3ccc(C#N)cn3)ccc2F)Cc2ccncc2C(N)=N1` (centres unmarked) [Compound I-8], the IC50 was at most 1000 nM.

With `CCCC#CC(=O)Nc1ccc(F)c(C2(C)Cc3cnccc3C(N)=N2)c1` (centres unmarked) [Compound I-29], the IC50 is at most 3000 nM.

For `CC#CCOc1cnc(C(=O)Nc2ccc(F)c(C3(C)Cc4ccncc4C(N)=N3)c2)cn1` (centres unmarked) [Compound I-26], the IC50 was at most 1000 nM.

For `CCCCC#CC(=O)Nc1ccc(F)c(C2(C)Cc3cnccc3C(N)=N2)c1` (centres unmarked) [Compound I-32], the IC50 is at most 3000 nM.

As to `CC1(c2cc(NC(=O)c3ccc(C(F)(F)F)cn3)ccc2F)Cc2cnccc2C(N)=N1` (centres unmarked) [Compound I-13], the IC50 is at most 1000 nM.

Turning to `CC1(c2cc(NC(=O)c3ncc(F)cc3F)ccc2F)Cc2c(F)cncc2C(N)=N1` (centres unmarked) [Compound I-18], the IC50 was at most 1000 nM.

In the case of `CC#CCOc1cnc(C(=O)Nc2ccc(F)c(C3(C)Cc4c(F)cncc4C(N)=N3)c2)cn1` (centres unmarked) [Compound I-22], the IC50 is at most 1000 nM.

For the molecule `COc1cnc(C(=O)Nc2ccc(F)c(C3(C)Cc4cnccc4C(N)=N3)c2)cn1` (centres unmarked) [Compound I-14], the IC50 was at most 1000 nM.

Regarding `CC1(c2cc(NC(=O)C#CC3CC3)ccc2F)Cc2cnccc2C(N)=N1` (centres unmarked) [Compound I-31], the IC50 was at most 3000 nM.

Take `Cc1cnc(C(=O)Nc2ccc(F)c(C3(C)Cc4ccncc4C(N)=N3)c2)cn1` (centres unmarked) [Compound I-25]: the IC50 was at most 1000 nM.

As for `CC#CC(=O)Nc1ccc(F)c(C2(C)Cc3cnccc3C(N)=N2)c1` (centres unmarked) [Compound I-27], the IC50 worked out at 308 nM.

Take `Cc1cnc(C(=O)Nc2ccc(F)c(C3(C)Cc4c(F)cncc4C(N)=N3)c2)cn1` (centres unmarked) [Compound I-21]: the IC50 was at most 1000 nM.

As to `CC1(c2cc(NC(=O)c3ccc(Cl)cn3)ccc2F)Cc2cnccc2C(N)=N1` (centres unmarked) [Compound I-11], the IC50 was at most 1000 nM.

The values are drawn from patent US8927721B2, “Naphthyridine derivative” (Shionogi & Co., Ltd., priority 2010, dated 2015).
